In US10202370B2, “Benzimidazole derivatives as selective proteine kinase inhibitors” (AB SCIENCE, priority 2013, dated 2019):

Target: c-kit WT (Homo sapiens (Human), UniProt P10721)
Test: Proliferation assay (CellTiter-Blue) on BaF3 Kit WT cell line
Type: cell-based
Details: BaF3 Kit WT cell line (murine Ba/F3 expressing Human Kit WT, with murine SCF), 48 hours
In short: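 Ba/F3 cells expressing human Kit WT, maintained in RPMI/10% FCS with 250 ng/ml murine SCF, were seeded at 2.10^4 cells/well and exposed to ½ serial dilutions (0–10 μM) for 48 h at 37° C. Viability was measured by CellTiter-Blue fluorescence (544Ex/590Em, 4 h) in triplicate as % of untreated proliferation.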

Chain of c-kit WT (P10721 26-976): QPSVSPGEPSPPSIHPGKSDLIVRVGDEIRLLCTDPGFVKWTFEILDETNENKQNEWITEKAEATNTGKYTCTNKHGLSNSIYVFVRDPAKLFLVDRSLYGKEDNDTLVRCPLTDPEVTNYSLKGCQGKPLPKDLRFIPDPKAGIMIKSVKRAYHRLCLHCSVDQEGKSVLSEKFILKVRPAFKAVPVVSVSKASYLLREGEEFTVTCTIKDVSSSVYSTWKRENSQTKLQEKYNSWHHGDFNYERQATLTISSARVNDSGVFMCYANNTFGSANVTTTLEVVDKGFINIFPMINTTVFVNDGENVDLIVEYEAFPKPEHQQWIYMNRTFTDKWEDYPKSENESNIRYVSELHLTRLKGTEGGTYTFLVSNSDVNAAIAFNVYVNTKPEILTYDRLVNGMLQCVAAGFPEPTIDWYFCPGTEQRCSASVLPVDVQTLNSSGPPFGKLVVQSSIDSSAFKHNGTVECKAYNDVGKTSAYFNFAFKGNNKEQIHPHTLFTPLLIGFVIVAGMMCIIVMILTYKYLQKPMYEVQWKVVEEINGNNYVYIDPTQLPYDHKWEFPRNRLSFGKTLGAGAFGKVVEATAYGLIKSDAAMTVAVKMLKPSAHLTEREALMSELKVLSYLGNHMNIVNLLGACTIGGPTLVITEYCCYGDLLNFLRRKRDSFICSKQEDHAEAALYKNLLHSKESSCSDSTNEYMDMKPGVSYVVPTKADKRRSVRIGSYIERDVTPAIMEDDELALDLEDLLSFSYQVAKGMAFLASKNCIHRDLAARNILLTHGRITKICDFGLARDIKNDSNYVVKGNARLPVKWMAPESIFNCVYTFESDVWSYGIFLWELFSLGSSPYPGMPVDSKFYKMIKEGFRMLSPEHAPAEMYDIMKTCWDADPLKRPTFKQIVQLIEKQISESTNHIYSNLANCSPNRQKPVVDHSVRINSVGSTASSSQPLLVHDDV

Row | SMILES | IC50 [µM]
1 | Cc1cc2nc(-c3cc(CN4CCCC4)cc(C(F)(F)F)c3)[nH]c2cc1Nc1nccc(-c2cccnc2)n1 [Compound 029, [6-Methyl-2-(3-pyrrolidin-1-ylmethyl-5-trifluoromethyl-phenyl)-3H-benzoimidazol-5-yl]-(4-pyridin-3-yl-pyrimidin-2-yl)-amine] | ≤ 1
2 | Cc1cc2nc(-c3cccc(N(C)C)c3)[nH]c2cc1Nc1nc(-c2cccnc2)cs1 [Compound 132, [2-(3-Dimethylamino-phenyl)-6-methyl-3H-benzoimidazol-5-yl]-(4-pyridin-3-yl-thiazol-2-yl)-amine] | ≤ 1
3 | C=CS(=O)(=O)Nc1cc(-c2nc3cc(Nc4nc(-c5ccncc5)cs4)c(C)cc3n2C)cc(C(F)(F)F)c1 [Compound 122, Ethenesulfonic acid {3-[1,6-dimethyl-5-(4-pyridin-4-yl-thiazol-2-ylamino)-yl]-5-trifluoromethyl-phenyl}-amide] | 1 to 10
4 | Cc1ccc(-c2nc3cc(Nc4nc(-c5ccncc5)cs4)c(C)cc3[nH]2)s1 [Compound 079, [6-Methyl-2-(5-methyl-thiophen-2-yl)-1H-benzoimidazol-5-yl]-(4-pyridin-4-yl-thiazol-2-yl)-amine] | ≤ 1
5 | Cc1cc2c(cc1Nc1nc(-c3ccncc3)cs1)nc(-c1ccc(CN3CCN(C)CC3)cc1)n2C [Compound 099, {1,6-Dimethyl-2-[4-(4-methyl-piperazin-1-ylmethyl)-phenyl]-1H-benzoimidazol-5-yl}-(4-pyridin-4-yl-thiazol-2-yl)-amine] | 1 to 10
6 | COc1ccc(-c2nc3cc(C)c(Nc4nc(-c5cccnc5)cs4)cc3[nH]2)cc1 [Compound 002, [2-(4-Methoxy-phenyl)-6-methyl-3H-benzoimidazol-5-yl]-(4-pyridin-3-yl-thiazol-2-yl)-amine] | 1 to 10
7 | Cn1c(-c2cccc(OC(F)(F)F)c2)nc2cc(Nc3nc(-c4cccnc4)cs3)ccc21 [Compound 092, [1-Methyl-2-(3-trifluoromethoxy-phenyl)-1H-benzoimidazol-5-yl]-(4-pyridin-3-yl-thiazol-2-yl)-amine] | 1 to 10
8 | Cc1cc2c(cc1Nc1nc(-c3cccnc3)cs1)nc(-c1cccc(N3CCN(C)CC3)c1)n2C [Compound 095, {1,6-Dimethyl-2-[3-(4-methyl-piperazin-1-yl)-phenyl]-1H-benzoimidazol-5-yl}-(4-pyridin-3-yl-thiazol-2-yl)-amine] | 1 to 10
9 | Cc1cccc(-c2nc3cc(C)c(Nc4nc(-c5ccc(C#N)cc5)cs4)cc3[nH]2)c1 [Compound 074, 4-[2-(6-Methyl-2-m-tolyl-3H-benzoimidazol-5-ylamino)-thiazol-4-yl]-benzonitrile] | ≤ 1
10 | Cc1cc2nc(-c3cccc(OC(F)(F)F)c3)[nH]c2cc1Nc1nc(-c2ccc(C#N)cc2)cs1 [Compound 075, 4-{2-[6-Methyl-2-(3-trifluoromethoxy-phenyl)-3H-benzoimidazol-5-ylamino]-thiazol-4-yl}-benzonitrile] | ≤ 1
11 | Cc1cc2nc(-c3ccc(Cl)cc3)[nH]c2cc1Nc1nc(-c2cccnc2)cs1 [Compound 059, [2-(4-Chloro-phenyl)-6-methyl-1H-benzoimidazol-5-yl]-(4-pyridin-3-yl-thiazol-2-yl)-amine] | 1 to 10
12 | Cc1cc2nc(-c3cccc(F)c3)[nH]c2cc1Nc1nccc(-c2cccnc2)n1 [Compound 019, [2-(3-Fluoro-phenyl)-6-methyl-3H-benzoimidazol-5-yl]-(4-pyridin-3-yl-pyrimidin-2-yl)-amine] | 1 to 10
13 | Cc1cc2nc(-c3ccc(C)c(C(F)(F)F)c3)[nH]c2cc1Nc1nc(-c2cccnc2)cs1 [Compound 056, [6-Methyl-2-(4-methyl-3-trifluoromethyl-phenyl)-3H-benzoimidazol-5-yl]-(4-pyridin-3-yl-thiazol-2-yl)-amine] | ≤ 1
14 | Cc1cc2[nH]c(-c3cccc(C(C)(C)C)c3)nc2cc1Nc1nc(-c2ccc(C#N)cc2)cs1 [Compound 154, 4-{2-[2-(3-tert-Butyl-phenyl)-6-methyl-1H-benzoimidazol-5-ylamino]-thiazol-4-yl}-benzonitrile] | ≤ 1
15 | COc1cccc(-c2nc3cc(Nc4nc(-c5cccnc5)cs4)c(C)cc3[nH]2)c1 [Compound 126, [2-(3-Methoxy-phenyl)-6-methyl-1H-benzoimidazol-5-yl]-(4-pyridin-3-yl-thiazol-2-yl)-amine] | ≤ 1
16 | Cc1cc2[nH]c(-c3cccc(C(C)(C)C)c3)nc2cc1Nc1nc(-c2cccnc2)cs1 [Compound 137, [2-(3-tert-Butyl-phenyl)-6-methyl-1H-benzoimidazol-5-yl]-(4-pyridin-3-yl-thiazol-2-yl)-amine] | ≤ 1
17 | Cc1cccc(-c2nc3cc(C)c(Nc4nc(-c5ccncc5)cs4)cc3[nH]2)c1 [Compound 034, (6-Methyl-2-m-tolyl-3H-benzoimidazol-5-yl)-(4-pyridin-4-yl-thiazol-2-yl)-amine] | ≤ 1
18 | Cc1cc2nc(-c3cccc(C(F)(F)F)c3)[nH]c2cc1Nc1ncc(-c2ccncc2)o1 [Compound 053, [6-Methyl-2-(3-trifluoromethyl-phenyl)-3H-benzoimidazol-5-yl]-(5-pyridin-4-yl-oxazol-2-yl)-amine] | 1 to 10
19 | Cc1cc2c(cc1Nc1nc(-c3ccc(C#N)cc3)cs1)nc(-c1cccc(C(C)C)c1)n2C [Compound 142, 4-{2-[2-(3-Isopropyl-phenyl)-1,6-dimethyl-1H-benzoimidazol-5-ylamino]-thiazol-4-yl}-benzonitrile] | ≤ 1
20 | C=CS(=O)(=O)Nc1cccc(-c2nc3cc(Nc4nc(-c5ccncc5)cs4)c(C)cc3n2C)c1 [Compound 135, Ethenesulfonic acid {3-[1,6-dimethyl-5-(4-pyridin-4-yl-thiazol-2-ylamino)-1H-benzoimidazol-2-yl]-phenyl}-amide] | 1 to 10
21 | Cc1cc2nc(-c3cc(F)cc(C(F)(F)F)c3)[nH]c2cc1Nc1nc(-c2cccnc2)cs1 [Compound 058, [2-(3-Fluoro-5-trifluoromethyl-phenyl)-6-methyl-3H-benzoimidazol-5-yl]-(4-pyridin-3-yl-thiazol-2-yl)-amine] | ≤ 1
22 | Cc1cc2c(cc1Nc1nc(-c3ccncc3)cs1)nc(-c1cccc(C(C)(C)C)c1)n2C [Compound 152, [2-(3-tert-Butyl-phenyl)-1,6-dimethyl-1H-benzoimidazol-5-yl]-(4-pyridin-4-yl-thiazol-2-yl)-amine] | ≤ 1
23 | CCn1c(-c2cccc(C(F)F)c2)nc2cc(Nc3nc(-c4cccnc4)cs3)c(C)cc21 [Compound 109] | ≤ 1
24 | Cc1cc2c(cc1Nc1nc(-c3ccnc(Cl)c3)cs1)nc(-c1cccc(C(F)F)c1)n2C [Compound 119, [4-(2-Chloro-pyridin-4-yl)-thiazol-2-yl]-[2-(3-difluoromethyl-phenyl)-1,6-dimethyl-1H-benzoimidazol-5-yl]-amine] | ≤ 1
25 | Cc1cc2c(cc1Nc1nc(-c3ccncc3)cs1)nc(-c1cccc(C(F)(F)F)c1)n2C [Compound 082, [1,6-Dimethyl-2-(3-trifluoromethyl-phenyl)-1H-benzoimidazol-5-yl]-(4-pyridin-4-yl-thiazol-2-yl)-amine] | ≤ 1
26 | CCn1c(-c2cccc(OC(F)(F)F)c2)nc2cc(Nc3nc(-c4cccnc4)cs3)c(C)cc21 [Compound 115, [1-Ethyl-6-methyl-2-(3-trifluoromethoxy-phenyl)-1H-benzoimidazol-5-yl]-(4-pyridin-3-yl-thiazol-2-yl)-amine] | ≤ 1
27 | Cc1cc2[nH]c(-c3cccc(C(C)C)c3)nc2cc1Nc1nc(-c2ccncc2)cs1 [Compound 150, [2-(3-Isopropyl-phenyl)-6-methyl-1H-benzoimidazol-5-yl]-(4-pyridin-4-yl-thiazol-2-yl)-amine] | ≤ 1
28 | Cc1cc2nc(CN3CCOCC3)[nH]c2cc1Nc1ncc(-c2ccncc2)o1 [Compound 055, (6-Methyl-2-morpholin-4-ylmethyl-3H-benzoimidazol-5-yl)-(5-pyridin-4-yl-oxazol-2-yl)-amine] | 1 to 10
